According to US20100105904A1, “UREA TYPE CINNAMIDE DERIVATIVE” (priority 2006, published 2010):

System: Aβ42 production
Experiment: Quantification of Aβ peptide in neuronal culture from rat fetus brain (Aβ ELISA)
Format: cell-based
Details: 72 h; rat primary neuronal culture (cerebral cortex, embryonic day 18 Wistar rats); medium collected three days after addition of compound; Aβx-42 ELISA; read-out: Aβ42 production reducing effect IC50
Method: Quantification of Aβ Peptide in Neuronal Culture from Rat Fetus Brain
Primary neuronal cultures were prepared from the cerebral cortex of embryonic day 18 Wistar rats (Charles River Japan, Yokohama, Japan). Specifically, the embryos were aseptically removed from pregnant rats under ether anesthesia. The brain was isolated from the embryo and immersed in an ice-cold L-15 medium (such as Invitrogen Corp. Cat #11415-064, Carlsbad, Calif., USA, or SIGMA L1518). The cerebral cortex was collected from the isolated brain under a stereoscopic microscope. The cerebral cortex fragments collected were enzymatically treated in an enzyme solution containing 0.25% trypsin (Invitrogen Corp. Cat #15050-065, Carlsbad, Calif., USA) and 0.01% DNase (Sigma D5025, St. Louis, Mo., USA) at 37° C. for 30 minutes to disperse the cells. Here, the enzymatic reaction was stopped by adding inactivated horse serum to the solution. The enzymatically treated solution was centrifuged at 1,500 rpm for five minutes to remove the supernatant. 5 to 10 ml of a medium was added to the resulting cell mass. Neurobasal medium (Invitrogen Corp. Cat #21103-049, Carlsbad, Calif., USA) supplemented with 2% B27 supplement (Invitrogen Corp. Cat #17504-044, Carlsbad, Calif., USA), 25 μM 2-mercaptoethanol (2-ME, WAKO Cat #139-06861, Osaka, Japan), 0.5 mM L-glutamine (Invitrogen Corp. Cat #25030-081, Carlsbad, Calif., USA), and Antibiotics-Antimycotics (Invitrogen Corp. Cat #15240-062, Carlsbad, Calif., USA) was used as the medium (Neurobasal/B27/2-ME). However, the above Neurobasal medium not supplemented with 2-ME (Neurobasal/B27) was used for the assay. The cells were redispersed by mild pipetting of the cell mass to which the medium was added. The cell dispersion was filtered through a 40-μm nylon mesh (Cell Strainer, Cat #35-2340, Becton Dickinson Labware, Franklin Lakes, N.J., USA) to remove the remaining cell mass, and thus a neuronal cell suspension was obtained. The neuronal cell suspension was diluted with the medium and then plated in a volume of 100 μl/well at an initial cell density of 5×10^5 cells/cm^2 in a 96-well polystyrene culture plate pre-coated with poly-L or D-lysine (Falcon Cat #35-3075, Becton Dickinson Labware, Franklin Lakes, N.J., USA coated with poly-L-lysine using the method shown below, or BIOCOAT™ cell environments Poly-D-lysine cell ware 96-well plate, Cat #35-6461, Becton Dickinson Labware, Franklin Lakes, N.J., USA). Poly-L-lysine coating was carried out as follows. 100 μg/ml of a poly-L-lysine (SIGMA P2636, St. Louis, Mo., USA) solution was aseptically prepared with a 0.15 M borate buffer (pH 8.5). […] of the solution was added to the 96-well polystyrene culture plate and incubated at room temperature for one or more hours or at 4° C. overnight or longer. The coated 96-well polystyrene culture plate was washed with sterile water four or more times, and then dried or rinsed with, for example, sterile PBS or medium, and used for cell plating. The plated cells were cultured in the culture plate at 37° C. in 5% CO2-95% air for one day. Then, the total amount of the medium was replaced with a fresh Neurobasal™/B27/2-ME medium, and then the cells were cultured for further three days.
The drug was added to the culture plate on Day 4 of culture as follows. The total amount of the medium was removed from the wells, and 180 μl/well of Neurobasal medium not containing 2-ME and containing 2% B-27 (Neurobasal/B27) was added thereto. A solution of the test compound in dimethyl sulfoxide (hereinafter abbreviated as DMSO) was diluted with Neurobasal/B27 to a concentration 10-fold higher than the final concentration. 20 μl/well of the dilution was added to and sufficiently mixed with the medium. The final DMSO concentration was 1% or less. Only DMSO was added to the control group.
The cells were cultured for three days after addition of the compound, and the total amount of the medium was collected. The resulting medium was used as an ELISA sample. […]

Row | SMILES | IC50 [nM]
1 | COc1cc(NC(=O)NCCCc2ccccc2)ccc1-n1cnc(C)c1 [Example 18, 1-[3-methoxy-4-(4-methyl-1H-imidazol-1-yl)phenyl]-3-(3-phenylpropyl)urea monotrifluoroacetate] | 860
2 | COc1cc(NC(=O)N2CCC(c3ccccc3)CC2)ccc1-n1cnc(C)c1 [Example 20, 4-phenyl-piperidine-1-carboxylic acid [3-methoxy-4-(4-methyl-1H-imidazo1-1-yl)phenyl]amide monotrifluoroacetate] | 1610
3 | COc1cc(NC(=O)NC(Cc2ccccc2)c2ccccc2)ccc1-n1cnc(C)c1 (centres unmarked) [Example 17, 1-(1,2-diphenyl-ethyl)-[3-methoxy-4-(4-methyl-1H-imidazol-1-yl)phenyl]urea monotrifluoroacetate] | 560
4 | COc1cc(NC(=O)NCCC(c2ccccc2)c2ccccc2)ccc1-n1cnc(C)c1 [Example 24, 1-(3,3-diphenylpropyl)-3-[3-methoxy-4-(4-methyl-1H-imidazol-1-yl)phenyl]urea monotrifluoroacetate] | 220
5 | COc1cc(NC(=O)NCc2ccc(Cl)c(Cl)c2)ccc1-n1cnc(C)c1 [Example 8, 1-(3,4-dichlorobenzyl)-3-[3-methoxy-4-(4-methyl-1H-imidazol-1-yl)phenyl]urea] | 1710
6 | COc1cc(NC(=O)N2CCCC(c3ccccc3)C2)ccc1-n1cnc(C)c1 (centres unmarked) [Example 21, 3-phenyl-piperidine-1-carboxylic acid [3-methoxy-4-(4-methyl-1H-imidazol-1-yl)phenyl]amide monotrifluoroacetate] | 1660
7 | COc1cc(NC(=O)NCCCc2ccc(C3CCCCC3)cc2)ccc1-n1cnc(C)c1 [Example 26, 1-[3-(4-cyclohexyl-phenyl)propyl]-3-[3-methoxy-4-(4-methyl-1H-imidazol-1-yl)phenyl]urea monotrifluoroacetate] | 230
8 | COc1cc(NC(=O)NCC2(c3ccccc3)Cc3ccccc3C2)ccc1-n1cnc(C)c1 [Example 15, 1-[3-methoxy-4-(4-methyl-1H-imidazol-1-yl)phenyl]-3-(2-phenyl-indan-2-ylmethyl)urea monotrifluoroacetate] | 160
9 | COc1cc(NC(=O)N2CCCCC2CCc2ccccc2F)ccc1-n1cnc(C)c1 (centres unmarked) [Example 16, 2-[2-(2-fluorophenyl)ethyl]piperidine-1-carboxylic acid [3-methoxy-4-(4-methyl-1H-imidazol-1-yl)phenyl]amide monotrifluoroacetate] | 1420
10 | COc1cc(NC(=O)NC[C@H](O)c2ccccc2)ccc1-n1cnc(C)c1 [Example 29, 1-(R)-2-hydroxy-2-phenylethyl-3-[3-methoxy-4-(4-methyl-1H-imidazol-1-yl)phenyl]urea] | 3840
11 | COc1cc(NC(=O)NCc2cc(F)c(F)c(F)c2)ccc1-n1cnc(C)c1 [Example 19, 1-[3-methoxy-4-(4-methyl-1H-imidazol-1-yl)phenyl]-3-(3,4,5-trifluorobenzyl)urea monotrifluoroacetate] | 2070
12 | COc1cc(NC(=O)NCC2c3ccccc3-c3ccccc32)ccc1-n1ccnc1 [Example 6, 1-(9H-fluoren-9-ylmethyl)-3-[4-(1H-imidazol-1-yl)-3-methoxyphenyl]urea] | 5200
13 | COc1cc(NC(=O)NCCc2ccc(Cl)c(Cl)c2)ccc1-n1cnc(C)c1 [Example 11, 1-[2-(3,4-dichlorophenyl)ethyl]-3-[3-methoxy-4-(4-methyl-1H-imidazol-1-yl)phenyl]urea] | 970
14 | COc1cc(NC(=O)N[C@@H](C)c2ccc(F)cc2)ccc1-n1cnc(C)c1 [Example 10, 1-[(S)-1-(4-fluorophenyl)ethyl]-3-[3-methoxy-4-(4-methyl-1H-imidazol-1-yl)phenyl]urea] | 1220
15 | COc1cc(NC(=O)NCC(C)(C)c2ccccc2)ccc1-n1cnc(C)c1 [Example 27, 1-[3-methoxy-4-(4-methyl-1H-imidazol-1-yl)phenyl]-3-(2-methyl-2-phenylpropyl)urea monotrifluoroacetate] | 540
16 | COc1cc(NC(=O)N[C@@H](CO)Cc2ccccc2)ccc1-n1cnc(C)c1 [Example 23, 1-((R)-1-hydroxymethyl-2-phenylethyl)-3-[3-methoxy-4-(4-methyl-1H-imidazol-1-yl)phenyl]urea] | 1050
17 | COc1cc(NC(=O)NCC(c2ccccc2)c2ccccc2)ccc1-n1cnc(C)c1 [Example 25, 1-(2,2-diphenylethyl)-3-[3-methoxy-4-(4-methyl-1H-imidazol-1-yl)phenyl]urea monotrifluoroacetate] | 190
